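Method: 48-hour compound exposure of cells in 96-well plates, five concentrations, linear interpolation of endpoints. Here, GI50 denotes the concentration required for 50% inhibition of growth. TGI marks complete inhibition of growth.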
Legend:
Assay in all cases: NCI tumour cell line growth inhibition, 48 h
[1] = tested on: PC-3 prostate
[2] = tested on: HCT-116 colon
[3] = tested on: MALME-3M melanoma
[4] = tested on: OVCAR-5 ovarian
[5] = tested on: SK-MEL-2 melanoma
[6] = tested on: IGROV1 ovarian
[7] = tested on: SK-MEL-5 melanoma
[8] = tested on: CCRF-CEM leukemia
[9] = tested on: 786-0 renal
[10] = tested on: MOLT-4 leukemia

Compound	TGI [1]	TGI [2]	TGI [3]	TGI [4]	TGI [5]	TGI [6]	TGI [7]	TGI [8]	TGI [9]	TGI [10]	GI50 [1]	GI50 [2]	GI50 [3]	GI50 [4]	GI50 [5]	GI50 [6]	GI50 [7]	GI50 [8]	GI50 [9]	GI50 [10]
CC1(C)C(N2CCOCC2)CS1(=O)=O (stereo unspecified)	> 10 µM	> 10 µM	> 10 µM	> 10 µM	> 10 µM	> 10 µM	> 10 µM	> 10 µM	> 10 µM	> 10 µM	–	–	–	–	–	–	–	–	–	–
C[C@]12CC[C@H](O[C@@H]3O[C@H](CO[C@@H]4O[C@H](CO)[C@@H](O)[C@H](O)[C@H]4O)[C@@H](O)[C@H](O)[C@H]3O)C[C@@H]1CC[C@@H]1[C@@H]2CC[C@]2(C)[C@@H](C3=CC(=O)OC3)CC[C@]12O	> 100 µM	34.9 µM	38.1 µM	> 76.6 µM	> 94 µM	56.3 µM	8.52 µM	> 100 µM	> 100 µM	> 41 µM	–	–	–	–	–	–	–	–	–	–
CN(C)c1ccc(/C=C(\C#N)c2cc3ccccc3[nH]2)cc1	31.6 µM	> 100 µM	> 100 µM	> 100 µM	> 100 µM	> 100 µM	32.8 µM	14.3 µM	> 100 µM	> 100 µM	1.15 µM	0.456 µM	2.32 µM	3.8 µM	0.454 µM	1.6 µM	1.36 µM	0.813 µM	2.52 µM	0.906 µM
Brc1ccccc2cc(-c3ccccc3)nc1-2	> 64.8 µM	10.5 µM	20.4 µM	35 µM	18.6 µM	26.5 µM	36.2 µM	> 48.5 µM	10.8 µM	> 92.3 µM	–	–	–	–	–	–	–	–	–	–
NS(=O)(=O)c1ccc(N=Nc2ccc[nH]c2=O)cc1	> 100 µM	> 100 µM	> 100 µM	> 100 µM	> 100 µM	> 100 µM	> 100 µM	74.6 µM	> 100 µM	> 100 µM	–	–	–	–	–	–	–	–	–	–
NC(=O)c1c(NC(=O)c2cccs2)sc2c1CCC(=O)C2	> 100 µM	13.7 µM	4.58 µM	9.23 µM	7.78 µM	36.7 µM	3.19 µM	> 100 µM	> 100 µM	16.1 µM	0.627 µM	1.7 µM	1.85 µM	2.68 µM	2.71 µM	1.98 µM	1.62 µM	0.458 µM	4.34 µM	2.28 µM
O=C(O)CCC(c1ccccc1)(c1ccccc1)c1ccccc1	> 100 µM	> 100 µM	> 100 µM	> 100 µM	> 84 µM	> 100 µM	> 100 µM	> 100 µM	> 100 µM	> 92.2 µM	–	43.6 µM	–	–	–	71.2 µM	–	–	–	–
COc1ccc(Oc2nc3cc(N)cc(N)c3nc2-c2ccccc2)cc1	> 100 µM	75.1 µM	> 100 µM	> 100 µM	87.5 µM	> 100 µM	> 100 µM	12.6 µM	> 100 µM	93.9 µM	15 µM	28.7 µM	–	94.5 µM	25.1 µM	24.9 µM	44.6 µM	2.97 µM	24.4 µM	5.31 µM
C[C@@H](Nc1cc(F)cc(F)c1)c1cc(C(=O)N(C)C)cc2c(=O)cc(N3CCOCC3)oc12	> 100 µM	> 100 µM	> 84.9 µM	> 100 µM	> 100 µM	11.1 µM	> 76.8 µM	> 100 µM	> 100 µM	52.6 µM	0.586 µM	10.2 µM	7.12 µM	4.16 µM	25.8 µM	0.73 µM	22.1 µM	27.5 µM	0.192 µM	2.06 µM
Oc1ccc2c(=S)cc(-c3ccc(Br)cc3)oc2c1O	17.1 µM	9.73 µM	6.06 µM	78 µM	6.76 µM	9.96 µM	3.95 µM	8.03 µM	11.1 µM	6.77 µM	2.92 µM	2.22 µM	1.87 µM	5.83 µM	2.27 µM	2.56 µM	1.79 µM	2.53 µM	2.89 µM	2.16 µM
CC(=Nc1ccc(N(C)C)cc1)c1ccccc1	99.4 µM	30.6 µM	25.9 µM	> 100 µM	29.4 µM	75.3 µM	29.7 µM	92.6 µM	36.2 µM	72.1 µM	–	–	–	–	–	–	–	–	–	–
C#C[C@@]1(O)[C@@H](CO)O[C@@H](n2cc(Br)c3c(Cl)ccnc32)[C@@H]1O	0.874 µM	> 100 µM	> 100 µM	> 100 µM	> 100 µM	> 100 µM	> 100 µM	> 100 µM	> 100 µM	3.05 µM	0.217 µM	0.859 µM	32.3 µM	1.96 µM	35.2 µM	4.86 µM	39.7 µM	0.386 µM	1.68 µM	0.324 µM
COC(=O)[C@]12CC[C@@H](C)[C@H](C)[C@@H]1C1=CC[C@@H]3[C@@]4(C)C(C=O)=C[C@@](C)(CO)[C@@H]4[C@H](O)C[C@@]3(C)[C@]1(C)CC2	18.5 µM	8.97 µM	10.4 µM	17.9 µM	22.5 µM	21 µM	18.4 µM	13.7 µM	11.1 µM	8.73 µM	4.14 µM	2.76 µM	2.62 µM	3.47 µM	7.26 µM	4.25 µM	5.8 µM	3.73 µM	2.97 µM	2.79 µM
COC(=O)[C@H](Cc1cn(C)cn1)NC(=O)[C@H](CC(=O)OCc1ccccc1)NC(=O)Nc1cc(C(F)(F)F)cc(C(F)(F)F)c1	25.7 µM	40.7 µM	10.4 µM	34.2 µM	12.6 µM	29.2 µM	24.6 µM	24.7 µM	24.2 µM	36.6 µM	12.7 µM	12.5 µM	3.28 µM	17.2 µM	3.89 µM	14.5 µM	12.2 µM	9.81 µM	10.9 µM	17.1 µM
CC12OC(CC(O)C1O)n1c3ccccc3c3c4c(c5c6ccccc6n2c5c31)C(=O)N(CCN1CCOCC1)C4=O (stereo unspecified)	7.3 µM	5.51 µM	5.27 µM	9.65 µM	10.6 µM	8.65 µM	2.87 µM	8.95 µM	5.68 µM	4.26 µM	1.19 µM	0.625 µM	0.921 µM	2.32 µM	2.18 µM	0.98 µM	0.791 µM	1.16 µM	1.29 µM	0.23 µM
COC(=O)c1c[nH]c2cc(OC(C)C)c(OC(C)C)cc2c1=O	> 100 µM	> 100 µM	> 100 µM	> 100 µM	> 100 µM	> 100 µM	> 100 µM	> 100 µM	> 100 µM	> 100 µM	> 100 µM	> 100 µM	> 100 µM	> 100 µM	> 100 µM	> 100 µM	> 100 µM	> 100 µM	> 100 µM	> 100 µM
C=C1C(=O)O[C@H]2[C@H]1CC/C(COC(=O)c1cccnc1N)=C\CC[C@@]1(C)O[C@@H]21	19.2 µM	1.26 µM	6.65 µM	21.7 µM	12.5 µM	11.6 µM	12.5 µM	2.47 µM	4.24 µM	6.46 µM	3.72 µM	0.36 µM	1.91 µM	6.95 µM	3.16 µM	2.56 µM	2.9 µM	0.345 µM	1.7 µM	0.65 µM
CN1CCC2(CC1)N=C(SCC(=O)Nc1cnc3ccccc3c1)C(c1ccc(Br)cc1)=N2	3.74 µM	3.16 µM	3.36 µM	7.33 µM	3.88 µM	4.19 µM	3.07 µM	5.31 µM	2.85 µM	4.37 µM	1.77 µM	1.77 µM	1.78 µM	2.43 µM	1.93 µM	1.77 µM	1.68 µM	2.21 µM	1.5 µM	1.93 µM
C=C1c2nc3ccccc3n2C=C(c2cccc(Cl)c2)N1Cc1ccc(OC)cc1	> 70.3 µM	11.7 µM	72 µM	> 30.9 µM	68 µM	15.8 µM	3.55 µM	> 23.3 µM	17.3 µM	11.2 µM	2.21 µM	0.496 µM	0.717 µM	5.84 µM	0.636 µM	0.471 µM	0.276 µM	2.75 µM	3.08 µM	2.57 µM
CCCCC(=O)N(c1ccc(Nc2c3ccccc3nc3cc([N+](=O)[O-])ccc23)cc1)S(C)(=O)=O	54.2 µM	19.8 µM	34.8 µM	> 100 µM	62.9 µM	> 45.8 µM	18.3 µM	> 100 µM	> 100 µM	28.4 µM	3.64 µM	3.78 µM	14.3 µM	77.6 µM	23.3 µM	6.86 µM	4.25 µM	3.65 µM	4.3 µM	3.53 µM
